molecular target: human 5-HT2C receptor (Homo sapiens, UniProt P28335, I156V/I160V/N158S); test: cell-based
Sequence (P28335 33-458 I156V/N158S/I160V limits assumed): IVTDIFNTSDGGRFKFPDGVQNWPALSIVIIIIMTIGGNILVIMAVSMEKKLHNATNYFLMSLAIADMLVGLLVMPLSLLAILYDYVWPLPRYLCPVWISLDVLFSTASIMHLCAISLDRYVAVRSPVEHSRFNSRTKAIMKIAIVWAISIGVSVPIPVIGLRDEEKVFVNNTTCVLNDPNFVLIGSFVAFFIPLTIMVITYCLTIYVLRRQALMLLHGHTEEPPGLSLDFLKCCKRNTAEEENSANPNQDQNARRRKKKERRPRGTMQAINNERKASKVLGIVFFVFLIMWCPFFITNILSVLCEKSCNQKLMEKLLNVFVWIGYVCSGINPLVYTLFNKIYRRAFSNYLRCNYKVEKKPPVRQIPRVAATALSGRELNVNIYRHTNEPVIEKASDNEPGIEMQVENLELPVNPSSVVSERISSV

SMILES | EC50 [nM]
CN(Cc1ccc(Cl)c(Cl)c1)C(=O)C1CN(c2c3c(nc4ccnn24)CCNCC3)C1 [Example 31.81] | 33
CN(C(=O)C1CN(c2c3c(nc4ccnn24)CCNCC3)C1)C1CCCc2ccccc21 (stereo not shown) [Example 31.171] | 967
CC1(C)CCN(C(=O)C2CN(c3c4c(nc5c(Br)cnn35)CCNCC4)C2)C1 [Example 31.135] | 46
CC1C=CC(C)N1C(=O)C1CN(c2c3c(nc4ccnn24)CCNCC3)C1 (stereo not shown) [Example 31.192] | 359
O=C(C1CN(c2c3c(nc4ccnn24)CCNCC3)C1)N1CCC(Cc2ccccc2)CC1 [Example 31.126] | 47
CC1(C)CC2CC(C)(CN2C(=O)C2CN(c3c4c(nc5ccnn35)CCNCC4)C2)C1 (stereo not shown) [Example 31.25] | 1510
O=C(C1CN(c2c3c(nc4ccnn24)CCNCC3)C1)N1CCCNCC1 [Example 37.6] | 2
C#CCN1CCN(C(=O)C2CN(c3c4c(nc5ccnn35)CCNCC4)C2)CC1 [Example 37.39] | 7
CC(=O)N(C)c1ccc(OC2CN(c3c4c(nc5ccnn35)CCNCC4)C2)cc1 [Example 35.28] | 189
CC1CN(C(=O)C2CN(c3c4c(nc5ccnn35)CCNCC4)C2)CCO1 (stereo not shown) [Example 31.34] | 91
Cc1ccc(Cl)c(OC2CN(c3c4c(nc5ccnn35)CCNCC4)C2)c1 [Example 35.29] | 114
O=C(C1CN(c2c3c(nc4ccnn24)CCNCC3)C1)N1CCC2(CC1)OCc1ccccc12 [Example 31.153] | 86
COc1ccccc1CN(C)C(=O)C1CN(c2c3c(nc4ccnn24)CCNCC3)C1 [Example 31.51] | 85
C[C@@H]1C[C@H](C)CN(C(=O)C2CN(c3c4c(nc5ccnn35)CCNCC4)C2)C1 [Example 31.180] | 36
O=C(C1CN(c2c3c(nc4ccnn24)CCNCC3)C1)N1CCC(Nc2ccccc2)CC1 [Example 37.43] | 6
CN(C(=O)C1CN(c2c3c(nc4ccnn24)CCNCC3)C1)c1ccccc1 [Example 31.5] | 742

SMILES | EC50 [nM]
O=C(C1CN(c2c3c(nc4ccnn24)CCNCC3)C1)N1CC(F)(F)C(F)(F)C1 [Example 31.200] | 28
O=C(C1CN(c2c3c(nc4ccnn24)CCNCC3)C1)N1CC[C@H](F)C1 [Example 31.202] | 162
O=C(C1CN(c2c3c(nc4ccnn24)CCNCC3)C1)N1CCC(c2ccc(F)cc2)CC1 [Example 31.110] | 30
O=C(C1CN(c2c3c(nc4ccnn24)CCNCC3)C1)N1CCNCC1 [Example 37.44] | 2
COc1cccc(F)c1OCC1CN(c2c3c(nc4ccnn24)CCNCC3)C1 [Example 15.23] | 47
CN1CCc2nc3ccnn3c(N3CC(C(=O)N4CCC5(CCC5)C4)C3)c2CC1 [Example 36.34] | 885
Clc1ccccc1OC1CCN(c2c3c(nc4ccnn24)CCNCC3)CC1 [Example 1.55] | 2780
O=C(NCc1ccc(OC(F)F)cc1)C1CN(c2c3c(nc4ccnn24)CCNCC3)C1 [Example 37.97] | 8
FC(F)(F)c1cccc(OC2CN(c3c4c(nc5ccnn35)CCNCC4)C2)n1 [Example 20.10] | 181
c1ccc(CCc2cnn3c(N4CCC4)c4c(nc23)CCNCC4)nc1 [Example 6, 10-Azetidin-1-yl-3-(2-pyridin-2-yl-ethyl)-6,7,8,9-tetrahydro-5H-1,4,7,10a-tetraaza-cyclohepta[f]indene] | 156
CC1(C(=O)N2CCC(c3ccccc3F)CC2)CN(c2c3c(nc4ccnn24)CCNCC3)C1 [Example 32.6] | 2780
CN1CCCN(C(=O)C2CN(c3c4c(nc5ccnn35)CCNCC4)C2)CC1 [Example 37.10] | 2
CO[C@@H]1CCN(C(=O)C2CN(c3c4c(nc5ccnn35)CCN(C)CC4)C2)C1 [Example 36.38] | 86
O=C(NC1CCC(F)(F)CC1)C1CN(c2c3c(nc4ccnn24)CCNCC3)C1 [Example 37.47] | 126
O=C(NCC1CCCCCC1)C1CN(c2c3c(nc4ccnn24)CCNCC3)C1 [Example 37.68] | 39
